Laboratory results published in patent publication US20140121193A1, “METHODS FOR TREATING FIBROMYALGIA” (priority 2012, published 2014).
Structures can show the parent of a compound that is named as a salt.

Columns and labels:
Format in all cases: in vivo, human
patients with FMS [1] = experiment: Word naming speed (Stroop Color and Word Test) before and after methylphenidate; settings: 10 to 30 mg per day, median 30 days
From the text: Abnormalities in naming speed are an unappreciated feature of cognitive dysfunction in fibromyalgia (FMS). Approximately 50% of FMS patients with memory problems name words at a rate that is 203 milliseconds slower than normal. The connection between naming speed and memory loss in FMS is unclear. Stimulant medications like methylphenidate have been known to influence naming speed and could provide clues to the relationship between cognitive functioning and naming speed. The purpose of this experiment was to determine if faster naming speed is connected to positive change in cognitive functioning in patients with fibromyalgia.
(§1) A word naming speed measure (Stroop Color and Word Test) and a measure of cognitive functioning (Mental Clutter Scale, MCS) were administered to 15 patients with FMS, before receiving methylphenidate and post-treatment with methylphenidate. The FMS patients were female, met American College of Rheumatology criteria for FMS, and had memory problems. Methylphenidate dosage was clinically determined and ranged from 10 to 30 mg per day. The median time of methylphenidate usage at re-testing was 30 days. Naming speed was determined by the number of words named in a 45 second time period.
(§2) The mean age of the FMS sample was 46.3±11.6 years with 14.1±2.1 years of education. […] Pre-methylphenidate, the patients read 77.4 words in 45 seconds (581.4 msec/word). Post-methylphenidate, the patients read 93 words in 45 seconds (483.9 msec/word). This represents a 97.5 millisecond benefit from methylphenidate. The normative sample reads 108 words in 45 seconds or 417 msec/word.

patients with FMS [2] = experiment: Mental Clutter Scale (MCS), Cognition and Mental Clarity subscales, before and after methylphenidate; settings: 10 to 30 mg per day, median 30 days
Method: Three studies involving a sample of over 800 subjects were carried out to determine the structure and stability of a new scale, the Mental Clutter Scale (MCS) (Leavitt & Katz, 2011, “Development of the Mental Clutter Scale,” Psychol. Rep. 109(2): 445-52). An initial pool of 13 items was formulated from self-statements of patients presenting with a history of memory complaints and a review of the literature. Seven items relating to problems with cognitive skills were rated on a 10-point Likert scale from 1=no problem, to 10=severe problem. Six items relating to the frequency of diminished mental clarity were rated on a 10-point Likert scale from 1=not at all, to 10=all the time.
as §1, §2

patients with FMS [3] = experiment: Interference from pain on energy, mood and concentration, 10 point visual analogue scale
Method: (§3) Fibromyalgia patients were treated with methylphenidate and the effects on concentration, energy, and feelings of well-being were measured. […] Pain intensity was also recorded on a 10 point visual analogue scale, with the endpoint of 1 indicating no pain, and the endpoint of 10 indicating severe pain. The four measures were administered to 48 patients with FMS, before receiving methylphenidate and post methylphenidate treatment. The FMS patients were female and met the new ACR criteria for FMS. Methylphenidate dosage was clinically determined and ranged from 10 to 60 mg per day. The median methylphenidate usage at re-testing was 30 days.
(§4) The mean age of the FMS sample was 48.3±12.3 years. […] The largest change occurred with concentration. However, a significant change in pain intensity with methylphenidate treatment was not observed.

patients with FMS [4] = experiment: Pain intensity, 10 point visual analogue scale
Method: as §3, §4

For `COC(=O)C(c1ccccc1)C1CCCCN1` (racemic) [methylphenidate, d,l (racemic)-threo-methyl α-phenyl-2-piperidineacetate hydrochloride], the “words read in 45 seconds, post-methylphenidate” value (patients with FMS [1]; pre-methylphenidate 77.4, normative sample 108) was 93 words in 45 seconds, the “naming time per word, post-methylphenidate” value (patients with FMS [1]; pre-methylphenidate 581.4, normative sample 417) was 483.9 msec/word and the “benefit from methylphenidate in naming time per word” value (patients with FMS [1]; pre minus post) was 97.5 millisecond. The “Post-methylphenidate score, Mental Clarity subscale of the Mental Clutter Scale” value (patients with FMS [2]; 15 FMS patients, pre-methylphenidate 48.1 ± 16.5, lower scores represent improved performance, p < 0.01) was 29.2 ± 13.6, the “Post-methylphenidate score, Cognition subscale of the Mental Clutter Scale” value (patients with FMS [2]; 15 FMS patients, pre-methylphenidate 52.8 ± 15.6, lower scores represent improved performance, p < 0.01) was 35.1 ± 11.3 and the “improvement with methylphenidate on Cognition (MCS)” value (patients with FMS [2]; pre vs post) was 17 point. For the same molecule, the “improvement with methylphenidate on Mental Clarity (MCS)” value (patients with FMS [2]; pre vs post) was 19 point, the “Post-methylphenidate score, pain interference on Mood” value (patients with FMS [3]; 48 female FMS patients, 10 to 60 mg per day, median 30 days, VAS 1-10, pre-methylphenidate 6.0 ± 2.6, lower scores = improved, p < 0.05) was 5.3 ± 2.5 and the “Post-methylphenidate score, pain interference on Concentration” value (patients with FMS [3]; 48 female FMS patients, 10 to 60 mg per day, median 30 days, VAS 1-10, pre-methylphenidate 6.5 ± 2.3, lower scores = improved) was 5.4 ± 2.4. For the same molecule, the “Post-methylphenidate score, pain interference on Energy” value (patients with FMS [3]; 48 female FMS patients, 10 to 60 mg per day, median 30 days, VAS 1-10, pre-methylphenidate 6.6 ± 2.4, lower scores = improved) was 5.9 ± 2.2, the “change in pain interference on concentration, repeated measures ANOVA” value (patients with FMS [3]; pre vs post methylphenidate, p<0.001, largest change) was “significant reduction” and the “change in pain interference on energy, repeated measures ANOVA” value (patients with FMS [3]; pre vs post methylphenidate, p<0.01) was “significant reduction”. For the same molecule, the “change in pain interference on mood, repeated measures ANOVA” value (patients with FMS [3]; pre vs post methylphenidate, p<0.05) was “significant reduction”, the “Post-methylphenidate score, Pain intensity” value (patients with FMS [4]; 48 female FMS patients, 10 to 60 mg per day, median 30 days, VAS 1-10, pre-methylphenidate 6.7 ± 1.9, lower scores = improved) was 6.4 ± 2.4 and the “significant change in pain intensity with methylphenidate treatment” value (patients with FMS [4]; pre vs post methylphenidate) was “not observed”.
